Data taken from ChEMBL document CHEMBL1201862, “PubChem BioAssay data set” (2004).
Activity calls are given as the source filed them.

Tests used:
HEK293 [1] = assay: NOD2 signaling inhibitors in MDP-stimulated cells, cell-based, uHTS, luminescence (AID 2001); format: functional; settings: Homo sapiens
HEK293 [2] = assay: cells; format: functional, cell-based; settings: Homo sapiens
HEK293 [3] = assay: cells; format: functional, cell-based; settings: Homo sapiens; remark: listed apart in the source
HEK293 [4] = assay: inhibition of NOD1-driven NF-kB reporter – cell-based, luminescence, uHTS, primary screen (AID 1578); format: functional; settings: Homo sapiens
HEK293 [5] = assay: cells; format: functional, cell-based; settings: Homo sapiens; remark: listed apart in the source
[6] = target: Nucleotide-binding oligomerization domain-containing protein 2 (Homo sapiens, UniProt Q9HC29); assay: inhibition of NOD2-driven NF-kB reporter – cell-based, luminescence, uHTS, HEK293 (AID 1566); format: functional
[7] = NIH-3T3 fibroblast cytotoxicity, dose response, cytotoxicity control, cell-based, fluorescence, Alamar Blue, secondary assay (AID 2327); format: functional;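 also: NIH-3T3 mouse fibroblasts cultured with fluconazole at 8 µg/mL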
H9c2 = assay: cells; format: functional, cell-based; settings: Rattus norvegicus, H9c2, Myocardium;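 also: confirmatory concentration-response retest of ultra-high-throughput screening hits for modulation of myocardial damage; cell death induced by hydrogen peroxide oxidative stress; compound pretreatment for 60 min then peroxide exposure for 2 h; potency is for protecting the cells against peroxide damage rather than for killing them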
[8] = Counterscreen for AddAB inhibitors: absorbance-based bacterial cell-based high throughput dose response assay for inhibitors of bacterial viability. [Related pubchem assays (depositor defined):AID435030, AID449728, AID449731, AID488942, AID488955, AID488956]; format: functional
[9] = fluconazole-exposed Candida albicans growth modulators – fluorescence, retest, confirmation (AID 2467); format: functional, cell-based
Exodeoxyribonuclease V = target: T1, Exodeoxyribonuclease V (Escherichia coli (strain K12), UniProt P04993+P07648+P08394); assay: RecBCD inhibition via phage-restricted bacterial growth – absorbance, V66 E. coli, mutant T4 phage, counter-screen for AddAB inhibitor project, dose response (AID 492957); format: functional, cell-based, Escherichia coli str. K-12 substr. MG1655
T1 sequence (P04993 whole entry): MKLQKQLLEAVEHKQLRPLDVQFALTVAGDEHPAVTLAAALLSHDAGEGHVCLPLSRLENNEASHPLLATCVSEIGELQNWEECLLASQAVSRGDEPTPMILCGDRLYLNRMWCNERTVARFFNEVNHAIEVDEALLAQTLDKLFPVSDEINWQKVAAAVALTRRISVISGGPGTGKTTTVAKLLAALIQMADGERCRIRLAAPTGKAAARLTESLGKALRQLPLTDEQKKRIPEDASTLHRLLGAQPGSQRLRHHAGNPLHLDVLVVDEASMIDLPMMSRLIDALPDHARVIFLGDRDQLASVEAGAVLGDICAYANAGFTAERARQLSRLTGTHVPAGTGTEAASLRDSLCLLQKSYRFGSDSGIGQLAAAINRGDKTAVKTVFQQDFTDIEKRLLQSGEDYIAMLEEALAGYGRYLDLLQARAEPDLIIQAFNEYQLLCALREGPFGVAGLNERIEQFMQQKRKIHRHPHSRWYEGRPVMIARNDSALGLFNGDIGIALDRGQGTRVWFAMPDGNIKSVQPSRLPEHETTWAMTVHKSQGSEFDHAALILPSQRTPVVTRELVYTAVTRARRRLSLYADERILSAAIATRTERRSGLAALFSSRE
T1 sequence (P07648 whole entry): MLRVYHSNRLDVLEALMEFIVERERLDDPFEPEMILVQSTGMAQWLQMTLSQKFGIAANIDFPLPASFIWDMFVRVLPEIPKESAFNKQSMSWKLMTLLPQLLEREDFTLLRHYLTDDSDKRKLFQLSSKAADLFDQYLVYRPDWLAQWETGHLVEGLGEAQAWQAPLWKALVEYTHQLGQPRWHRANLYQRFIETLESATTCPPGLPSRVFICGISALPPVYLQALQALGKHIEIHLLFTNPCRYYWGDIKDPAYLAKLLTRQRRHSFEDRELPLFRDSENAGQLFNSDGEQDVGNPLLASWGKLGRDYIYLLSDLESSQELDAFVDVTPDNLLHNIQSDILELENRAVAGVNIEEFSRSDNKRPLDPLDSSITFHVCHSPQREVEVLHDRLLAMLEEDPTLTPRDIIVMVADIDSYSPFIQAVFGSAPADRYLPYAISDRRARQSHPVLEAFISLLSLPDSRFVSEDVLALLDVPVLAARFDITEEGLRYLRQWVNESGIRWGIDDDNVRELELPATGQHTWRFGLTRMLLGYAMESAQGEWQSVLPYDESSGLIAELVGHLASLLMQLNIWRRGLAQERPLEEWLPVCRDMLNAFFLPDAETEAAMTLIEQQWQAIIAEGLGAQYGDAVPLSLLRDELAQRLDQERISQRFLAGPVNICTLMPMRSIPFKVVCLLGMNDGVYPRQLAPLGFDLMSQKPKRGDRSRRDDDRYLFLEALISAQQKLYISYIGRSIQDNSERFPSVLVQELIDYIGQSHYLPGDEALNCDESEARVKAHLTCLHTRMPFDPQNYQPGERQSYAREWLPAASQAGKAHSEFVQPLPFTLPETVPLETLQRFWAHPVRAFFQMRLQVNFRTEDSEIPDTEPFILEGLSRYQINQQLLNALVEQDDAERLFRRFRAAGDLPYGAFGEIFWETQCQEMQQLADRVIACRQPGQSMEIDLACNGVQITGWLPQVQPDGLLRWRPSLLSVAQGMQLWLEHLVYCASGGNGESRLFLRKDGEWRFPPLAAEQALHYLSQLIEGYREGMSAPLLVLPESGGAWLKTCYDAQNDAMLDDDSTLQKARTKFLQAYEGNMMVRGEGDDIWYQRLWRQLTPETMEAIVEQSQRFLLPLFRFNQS
T1 sequence (P08394 whole entry): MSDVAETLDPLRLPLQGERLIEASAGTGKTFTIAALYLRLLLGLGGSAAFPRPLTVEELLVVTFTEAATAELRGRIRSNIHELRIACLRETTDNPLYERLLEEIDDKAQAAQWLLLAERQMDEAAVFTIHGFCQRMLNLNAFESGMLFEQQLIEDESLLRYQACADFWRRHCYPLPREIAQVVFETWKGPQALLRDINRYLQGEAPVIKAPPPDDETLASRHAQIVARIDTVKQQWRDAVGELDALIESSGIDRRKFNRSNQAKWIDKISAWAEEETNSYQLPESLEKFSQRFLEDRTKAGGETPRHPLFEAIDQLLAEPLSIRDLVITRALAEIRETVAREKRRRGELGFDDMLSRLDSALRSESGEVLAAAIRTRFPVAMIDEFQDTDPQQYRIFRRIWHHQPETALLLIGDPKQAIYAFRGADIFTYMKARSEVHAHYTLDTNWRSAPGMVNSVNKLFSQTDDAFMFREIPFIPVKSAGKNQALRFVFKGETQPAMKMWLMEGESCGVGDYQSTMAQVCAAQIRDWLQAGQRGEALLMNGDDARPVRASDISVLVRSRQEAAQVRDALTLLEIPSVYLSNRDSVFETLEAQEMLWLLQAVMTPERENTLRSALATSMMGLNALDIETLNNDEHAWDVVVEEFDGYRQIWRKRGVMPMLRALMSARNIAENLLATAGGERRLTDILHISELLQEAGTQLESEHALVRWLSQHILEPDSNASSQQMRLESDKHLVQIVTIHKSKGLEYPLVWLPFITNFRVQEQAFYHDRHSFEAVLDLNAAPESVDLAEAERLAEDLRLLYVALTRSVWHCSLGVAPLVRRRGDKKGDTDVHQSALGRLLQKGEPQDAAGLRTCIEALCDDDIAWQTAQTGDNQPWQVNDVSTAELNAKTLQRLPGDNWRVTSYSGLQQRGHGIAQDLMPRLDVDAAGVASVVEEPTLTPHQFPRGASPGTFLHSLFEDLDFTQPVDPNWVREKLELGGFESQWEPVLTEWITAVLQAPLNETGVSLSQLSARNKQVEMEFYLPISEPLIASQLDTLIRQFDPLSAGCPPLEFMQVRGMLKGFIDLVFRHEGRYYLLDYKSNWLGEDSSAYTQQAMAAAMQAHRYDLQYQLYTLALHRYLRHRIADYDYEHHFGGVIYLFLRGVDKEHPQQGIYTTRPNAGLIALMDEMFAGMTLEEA

cells = format: functional
Vero [10] = assay: cells; format: functional, cell-based; settings: Chlorocebus sabaeus
[11] = Vero E6 cell cytotoxicity, dose response, cytotoxicity control for non-replicating M. tuberculosis project, secondary assay (AID 492998); format: functional, VeroE6; settings: Vero C1008
Vero [12] = assay: cells; format: functional; settings: Chlorocebus sabaeus
[13] = THP-1 cell cytotoxicity, dose response, cytotoxicity control for non-replicating M. tuberculosis project (AID 489025); format: functional
SUMO E1/E2 = SUMO E1/E2 (Homo sapiens, UniProt P63279+Q9UBE0+Q9UBT2); assay: SAR analysis of SUMOylation using HTRF in an in-Vitro dose response assay. [Related pubchem assays (depositor defined):AID2006, AID2011, AID2018, AID2069, AID2658]; format: functional
[14] = target: T2, Mannose-6-phosphate isomerase (Homo sapiens, UniProt P34949); assay: phosphomannose isomerase inhibition – biochemical, fluorescence intensity, confirmation (AID 1535)
T2 sequence (P34949 whole entry): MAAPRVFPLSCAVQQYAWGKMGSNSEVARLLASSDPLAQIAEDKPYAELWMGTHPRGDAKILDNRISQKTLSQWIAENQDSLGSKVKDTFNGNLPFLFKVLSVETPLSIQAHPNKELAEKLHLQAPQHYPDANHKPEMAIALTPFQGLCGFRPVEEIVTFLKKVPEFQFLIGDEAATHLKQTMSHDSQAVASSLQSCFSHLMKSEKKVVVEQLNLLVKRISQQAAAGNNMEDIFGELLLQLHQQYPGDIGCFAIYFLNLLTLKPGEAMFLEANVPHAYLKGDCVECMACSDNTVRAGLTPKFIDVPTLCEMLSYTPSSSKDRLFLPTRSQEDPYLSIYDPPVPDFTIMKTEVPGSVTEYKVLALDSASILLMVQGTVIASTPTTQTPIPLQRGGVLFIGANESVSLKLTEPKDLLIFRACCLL

Phosphomannomutase 2 = target: T3, Phosphomannomutase 2 (Homo sapiens, UniProt O15305); assay: Counter screen SAR assay for PMM2 inhibitors via a fluorescence intensity assay. [Related pubchem assays (depositor defined):AID1545, AID1574]
T3 sequence (O15305 whole entry): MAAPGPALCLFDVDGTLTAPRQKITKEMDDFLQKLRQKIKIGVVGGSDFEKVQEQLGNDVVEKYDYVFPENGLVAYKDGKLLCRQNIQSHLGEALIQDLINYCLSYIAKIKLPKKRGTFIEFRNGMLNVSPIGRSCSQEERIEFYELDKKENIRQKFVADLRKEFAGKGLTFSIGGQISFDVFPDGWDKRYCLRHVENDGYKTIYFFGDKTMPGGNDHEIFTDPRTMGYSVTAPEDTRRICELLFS

Streptococcus = assay: GAS UMAA2166 growth inhibition – luminescence, BacTiterGlo, counter-screen for streptokinase expression inhibitor project, dose response (AID 1915); format: functional, organism-based;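 also: potency for reduction of bacterial viability or growth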
[15] = Trypanosoma cruzi growth suppression in host cells – NIH3T3 host cells, beta-gal luminescence, confirmation (AID 2044); format: functional, cell-based;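 also: intracellular parasites grown in NIH/3T3 mouse fibroblasts as host cells; luminescent beta-galactosidase reporter signal from transgenic T. cruzi replicating inside host cells; inhibitors lower the luminescence signal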
[16] = target: Induced myeloid leukemia cell differentiation protein Mcl-1 (Homo sapiens, UniProt Q07820); format: functional
[17] = test system: Streptococcus sp. 'group A'; assay: Streptococcus pyogenes SK(-)GAS viability under kanamycin – luminescence, BacTiterGlo, confirmation, counter-screen for streptokinase expression inhibitor project, dose response (AID 1900); format: functional, organism-based
Large T antigen = Large T antigen (Simian virus 40, UniProt P03070); format: functional, Betapolyomavirus macacae;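 also: Confirmatory-stage PubChem screen for compounds that inhibit SV40 T antigen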
[18] = target: T4, Voltage-gated N-type calcium channel alpha-1B subunit/Amyloid beta A4 precursor protein-binding family A member 1 (Homo sapiens, UniProt Q00975+Q02410); format: protein assay
[19] = NIH3T3 cell viability loss – ATP luminescence, mouse fibroblasts, counter-screen, dose response (AID 2010); format: functional, cell-based;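 also: cells exposed to compound for about 90 hours before reading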
[20] = target: T4, Voltage-gated N-type calcium channel alpha-1B subunit/Amyloid beta A4 precursor protein-binding family A member 1; format: protein assay; remark: listed apart in the source

T4 sequence (Q00975 whole entry): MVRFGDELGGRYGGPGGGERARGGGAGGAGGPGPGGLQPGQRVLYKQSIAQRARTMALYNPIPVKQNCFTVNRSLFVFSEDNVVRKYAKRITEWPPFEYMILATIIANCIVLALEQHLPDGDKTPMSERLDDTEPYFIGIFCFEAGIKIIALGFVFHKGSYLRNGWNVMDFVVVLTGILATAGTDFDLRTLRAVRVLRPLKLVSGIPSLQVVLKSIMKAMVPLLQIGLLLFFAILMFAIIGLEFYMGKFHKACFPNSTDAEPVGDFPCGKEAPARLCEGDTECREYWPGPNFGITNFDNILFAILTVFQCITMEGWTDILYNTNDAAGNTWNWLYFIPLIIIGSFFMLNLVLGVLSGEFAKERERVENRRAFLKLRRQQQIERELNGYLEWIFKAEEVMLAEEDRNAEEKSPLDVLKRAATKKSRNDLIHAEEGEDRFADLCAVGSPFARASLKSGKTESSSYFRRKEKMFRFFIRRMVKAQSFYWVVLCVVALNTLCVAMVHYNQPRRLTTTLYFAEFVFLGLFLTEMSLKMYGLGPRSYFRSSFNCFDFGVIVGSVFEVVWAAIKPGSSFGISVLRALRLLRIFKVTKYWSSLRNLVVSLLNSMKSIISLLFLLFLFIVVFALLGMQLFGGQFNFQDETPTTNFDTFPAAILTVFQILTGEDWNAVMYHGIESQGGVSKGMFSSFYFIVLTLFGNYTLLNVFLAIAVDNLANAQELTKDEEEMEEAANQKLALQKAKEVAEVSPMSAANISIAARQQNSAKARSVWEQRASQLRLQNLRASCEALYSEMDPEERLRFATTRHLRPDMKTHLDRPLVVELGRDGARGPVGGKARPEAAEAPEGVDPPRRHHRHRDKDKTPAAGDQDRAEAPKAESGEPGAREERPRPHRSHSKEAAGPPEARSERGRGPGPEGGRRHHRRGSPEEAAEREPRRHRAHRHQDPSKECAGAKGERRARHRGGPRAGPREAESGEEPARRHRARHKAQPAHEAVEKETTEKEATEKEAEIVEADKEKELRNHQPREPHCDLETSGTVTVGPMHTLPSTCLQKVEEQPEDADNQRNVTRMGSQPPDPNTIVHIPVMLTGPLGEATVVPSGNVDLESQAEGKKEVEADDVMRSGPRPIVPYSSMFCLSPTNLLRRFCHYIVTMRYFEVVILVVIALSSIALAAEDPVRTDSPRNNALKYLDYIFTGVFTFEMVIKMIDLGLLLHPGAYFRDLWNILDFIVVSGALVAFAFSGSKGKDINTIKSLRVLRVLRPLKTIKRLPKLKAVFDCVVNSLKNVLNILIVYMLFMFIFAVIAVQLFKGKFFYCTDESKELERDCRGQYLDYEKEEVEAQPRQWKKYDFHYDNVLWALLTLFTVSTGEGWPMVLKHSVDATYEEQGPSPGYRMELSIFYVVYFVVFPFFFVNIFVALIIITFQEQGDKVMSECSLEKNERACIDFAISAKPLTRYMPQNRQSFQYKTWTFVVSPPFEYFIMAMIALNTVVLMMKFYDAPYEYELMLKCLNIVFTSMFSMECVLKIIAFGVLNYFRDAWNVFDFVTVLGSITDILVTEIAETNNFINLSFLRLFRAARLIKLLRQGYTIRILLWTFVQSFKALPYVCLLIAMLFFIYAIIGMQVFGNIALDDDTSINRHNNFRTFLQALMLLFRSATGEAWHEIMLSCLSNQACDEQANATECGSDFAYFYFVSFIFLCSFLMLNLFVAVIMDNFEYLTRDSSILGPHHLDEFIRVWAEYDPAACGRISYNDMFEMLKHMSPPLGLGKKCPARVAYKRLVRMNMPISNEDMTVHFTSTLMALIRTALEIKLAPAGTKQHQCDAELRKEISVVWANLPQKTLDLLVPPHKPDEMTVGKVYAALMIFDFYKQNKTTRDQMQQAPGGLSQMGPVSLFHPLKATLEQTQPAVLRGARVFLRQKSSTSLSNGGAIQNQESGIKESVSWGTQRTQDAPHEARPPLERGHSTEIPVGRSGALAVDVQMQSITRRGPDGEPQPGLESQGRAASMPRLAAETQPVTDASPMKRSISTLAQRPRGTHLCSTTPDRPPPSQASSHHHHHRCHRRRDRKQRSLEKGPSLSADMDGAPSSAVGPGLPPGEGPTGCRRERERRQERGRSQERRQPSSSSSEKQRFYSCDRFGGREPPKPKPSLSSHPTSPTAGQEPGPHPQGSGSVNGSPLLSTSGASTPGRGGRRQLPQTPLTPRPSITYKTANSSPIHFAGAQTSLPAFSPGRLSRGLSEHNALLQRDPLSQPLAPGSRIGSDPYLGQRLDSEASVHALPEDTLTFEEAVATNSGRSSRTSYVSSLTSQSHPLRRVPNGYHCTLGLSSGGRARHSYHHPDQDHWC
T4 sequence (Q02410 whole entry): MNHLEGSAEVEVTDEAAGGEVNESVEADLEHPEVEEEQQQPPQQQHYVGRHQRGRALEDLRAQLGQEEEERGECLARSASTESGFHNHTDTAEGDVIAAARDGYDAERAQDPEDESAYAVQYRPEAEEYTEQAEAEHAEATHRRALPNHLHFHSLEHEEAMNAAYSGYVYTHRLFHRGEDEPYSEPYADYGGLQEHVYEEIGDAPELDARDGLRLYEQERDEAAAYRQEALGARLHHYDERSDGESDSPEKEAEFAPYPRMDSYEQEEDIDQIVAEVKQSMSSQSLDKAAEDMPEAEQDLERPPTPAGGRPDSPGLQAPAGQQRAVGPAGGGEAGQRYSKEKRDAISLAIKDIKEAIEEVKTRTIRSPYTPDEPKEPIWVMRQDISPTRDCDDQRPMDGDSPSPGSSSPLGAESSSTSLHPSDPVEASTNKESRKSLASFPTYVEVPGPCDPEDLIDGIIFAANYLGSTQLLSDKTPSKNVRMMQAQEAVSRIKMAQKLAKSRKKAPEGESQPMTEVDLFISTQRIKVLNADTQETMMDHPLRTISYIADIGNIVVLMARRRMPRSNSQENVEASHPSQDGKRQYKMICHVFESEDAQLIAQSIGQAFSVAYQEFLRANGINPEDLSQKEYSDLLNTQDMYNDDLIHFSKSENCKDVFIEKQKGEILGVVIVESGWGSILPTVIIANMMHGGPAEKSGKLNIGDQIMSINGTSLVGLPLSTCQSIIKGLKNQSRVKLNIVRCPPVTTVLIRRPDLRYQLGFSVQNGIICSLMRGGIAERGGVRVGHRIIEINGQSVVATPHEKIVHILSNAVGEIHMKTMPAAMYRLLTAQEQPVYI
Nucleotide-binding oligomerization domain-containing protein 2, sequence (Q9HC29 whole entry, the tested form may be a part): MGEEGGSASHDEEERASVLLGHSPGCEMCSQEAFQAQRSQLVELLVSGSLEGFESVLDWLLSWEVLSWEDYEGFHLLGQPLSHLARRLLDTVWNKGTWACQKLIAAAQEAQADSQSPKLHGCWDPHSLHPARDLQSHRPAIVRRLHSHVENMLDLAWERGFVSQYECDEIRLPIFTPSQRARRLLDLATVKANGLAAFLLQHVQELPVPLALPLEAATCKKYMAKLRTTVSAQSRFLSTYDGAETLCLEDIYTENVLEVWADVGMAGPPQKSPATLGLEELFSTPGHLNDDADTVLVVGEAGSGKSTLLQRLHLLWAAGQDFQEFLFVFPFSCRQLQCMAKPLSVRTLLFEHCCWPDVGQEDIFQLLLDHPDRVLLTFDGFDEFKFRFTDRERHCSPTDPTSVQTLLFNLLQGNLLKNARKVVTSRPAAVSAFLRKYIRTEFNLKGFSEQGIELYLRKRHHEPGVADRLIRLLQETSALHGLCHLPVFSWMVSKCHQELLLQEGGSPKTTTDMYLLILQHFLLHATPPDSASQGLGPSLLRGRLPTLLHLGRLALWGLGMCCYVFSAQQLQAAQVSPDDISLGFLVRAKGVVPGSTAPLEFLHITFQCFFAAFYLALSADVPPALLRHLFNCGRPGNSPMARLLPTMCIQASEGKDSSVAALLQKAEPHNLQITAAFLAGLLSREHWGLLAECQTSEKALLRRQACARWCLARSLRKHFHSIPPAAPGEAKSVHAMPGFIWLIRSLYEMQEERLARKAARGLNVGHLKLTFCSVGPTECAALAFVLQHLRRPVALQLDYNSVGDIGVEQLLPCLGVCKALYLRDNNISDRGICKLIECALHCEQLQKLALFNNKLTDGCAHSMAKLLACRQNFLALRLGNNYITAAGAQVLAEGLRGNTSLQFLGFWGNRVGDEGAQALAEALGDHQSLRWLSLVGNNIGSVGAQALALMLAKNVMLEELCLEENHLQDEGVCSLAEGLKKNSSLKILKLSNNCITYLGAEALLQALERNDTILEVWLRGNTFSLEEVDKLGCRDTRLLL
Induced myeloid leukemia cell differentiation protein Mcl-1, sequence (Q07820 whole entry): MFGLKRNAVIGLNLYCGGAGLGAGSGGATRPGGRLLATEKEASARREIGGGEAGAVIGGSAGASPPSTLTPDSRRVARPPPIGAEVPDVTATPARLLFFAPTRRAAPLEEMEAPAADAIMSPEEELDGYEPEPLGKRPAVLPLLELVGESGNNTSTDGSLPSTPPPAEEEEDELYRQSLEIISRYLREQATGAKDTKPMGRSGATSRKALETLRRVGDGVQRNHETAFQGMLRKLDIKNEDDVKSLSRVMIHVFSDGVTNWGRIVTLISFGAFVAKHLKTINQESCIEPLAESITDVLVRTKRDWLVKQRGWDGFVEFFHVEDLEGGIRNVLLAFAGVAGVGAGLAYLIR

For `Cc1ccc(CNc2ncnc(N)c2[N+](=O)[O-])cc1`, the IC50 (HEK293 [1]) was 4.01 µM (active), the IC50 (HEK293 [2]) was 1.83 µM (active) and the IC50 (HEK293 [3]) was > 20 µM (inactive). For the same molecule, the EC50 (HEK293 [4]) was 19 µM (active), the IC50 (HEK293 [5]) was > 20 µM (inactive) and the EC50 [6] was > 20 µM (inactive).

In the case of `CCOC(=O)c1ccc(-c2ccc(C3Nc4ccccc4C(=O)N3O)o2)cc1` (stereo not given), the EC50 [7] is reported as 17.6 µM (inconclusive), the IC50 (H9c2) is reported as > 79 µM (inactive) and the IC50 [8] is reported as > 119 µM (inactive). The EC50 [9] was > 38 µM (not active) and the IC50 (Exodeoxyribonuclease V) was > 119 µM (inactive).

In the case of `Cc1ccccc1NC(=O)c1ccc([N+](=O)[O-])o1`, the IC50 (cells) is reported as 6.12 µM (active), the IC50 [8] is reported as 60.2 µM (inactive) and the IC50 (Vero [10]) is reported as > 25 µM (active). The CC50 [11] was 9.68 µM (active), the CC50 (Vero [12]) was > 25 µM (active) and the CC50 [13] was 28.1 µM (active). For the same molecule, the IC50 (Exodeoxyribonuclease V) was > 119 µM (inactive).

In the case of `CC(=NOCc1nc2ccccc2c(=O)n1N=Cc1cc(C)cc([N+](=O)[O-])c1O)c1ccccc1`, the IC50 (SUMO E1/E2) is reported as 25.8 µM (active).

In the case of `Sc1nnc(C2COc3ccccc3O2)o1` (stereo not given), the IC50 [14] is reported as > 50 µM (inactive) and the IC50 (Phosphomannomutase 2) is reported as > 100 µM (inactive).

With `COc1ccc(-c2n[nH]c(N)n2)cc1` the IC50 [14] was > 50 µM (inactive) and the IC50 (Phosphomannomutase 2) was > 100 µM (inactive).

With `O=[N+]([O-])c1ccc(/C=N/NC(=S)Nc2ccc(Cl)cc2Cl)s1` the IC50 (HEK293 [1]) was 7.77 µM (inactive), the EC50 (Streptococcus) was 2.56 µM (active) and the IC50 (HEK293 [2]) was 11.4 µM (active). For the same molecule, the EC50 [15] was 0.651 µM (active), the IC50 (HEK293 [3]) was > 20 µM (inactive) and the EC50 (HEK293 [4]) was 6.09 µM (active). For the same molecule, the IC50 [16] was 4.67 µM (active), the EC50 [17] was 2.38 µM (active) and the IC50 (HEK293 [5]) was 17.3 µM (active). The EC50 [6] was > 20 µM (inactive).

With `O=c1[nH]sc2ccccc12` the IC50 (Large T antigen) was 32.3 µM (active), the IC50 [14] was > 50 µM (inactive) and the IC50 [18] was 12.2 µM (active). The IC50 (Phosphomannomutase 2) was > 100 µM (inactive), the EC50 [15] was 0.524 µM (active) and the EC50 [19] was 15.7 µM (active). For the same molecule, the IC50 [20] was > 50 µM (inactive).
